Experimental data from patent EP1984353B1, “AURORA KINASE MODULATORS AND METHOD OF USE” (Amgen, Inc, priority 2006, dated 2007).
Like-named read-outs stand apart in the source and are kept apart here.

Tests used:
[1] = tested on: phosphorylation of Histone H3; test: HeLa cell 1-hour phospho-histone assay; format: cell-based; settings: HeLa cells, 1 hour incubation, % of cells pHH3 positive, read-out: inhibitory activity (EC50) in the phospho-histone H3 assay
Description: HeLa cell 1-hour phospho-histone assay
The purpose of this assay is to test the inhibitory effect of Aurora compounds with respect to phosphorylation of Histone H3 in the cellular context. HeLa cells (9x10^4/well) are plated in black 96-well flat-bottom tissue culture plates and incubated for 40 hours prior to compound addition. Compounds are serially diluted in DMSO, followed by dilution into MEM containing […] HEPES; 10ul/well of diluted compounds are added to cells (0.5% DMSO final). Cells are incubated for 1 hour at 37 °C in 5% CO2. Cells are then fixed with 3.7% formaldehyde for 10 minutes, washed with wash buffer (1% goat serum and 0.1% Tween 20 in PBS), then permeabilized with 0.5% Triton X in PBS for 15 minutes. After washing with wash buffer, cells are incubated with primary antibody (Upstate #06-507 anti-phospho-histone (Ser 10) antibody (pHH3) for 1 hour at 10ug/ml. After 2 washes with wash buffer, cells are incubated with secondary antibody (Molecular Probes #A11034 goat anti-rabbit Alexa-488 for 1 hour at 1ug/ml + Hoechst 33342 nuclear dye at 1ug/ml (Molecular Probes). Cells are washed 2 times with wash buffer, and buffer replaced with PBS. Plates are scanned on the Cellomics Array Scan (6 fields, ~2000 cells/well) and % of cells that are pHH3 positive were calculated using the Cellomics algorithm.

AuroraB = biological target: T1, AuroraB (Homo sapiens, UniProt Q96GD4); test: AuroraB Homogeneous Time Resolved Fluorescent (HTRF) kinase assay; format: biochemical; settings: average, read-out: AurB_ _IC50_IP (Avg)
T1 construct: 20 µL of AuroraB FL His; His
Summary of the method: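 Full-length His-tagged AuroraB (400 pM) phosphorylates 0.1 µM biotinylated Histone H3 with 23 µM ATP (Km(app)) in HEPES pH 7.5 with Mg/Mn, about 90 min. EDTA-quenched; Eu-anti-phosphoHistoneH3 and SA-APC HTRF, 655/615 nm ratio as phosphorylation.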

AuroraA-TPX2 = biological target: T2, AuroraA-TPX2 (Homo sapiens, UniProt O14965); test: AuroraA-TPX2 Homogeneous Time Resolved Fluorescent (HTRF) kinase assay; format: biochemical; settings: average, read-out: AurA/TP X2_ IC50_IP (Avg)
T2 construct: 20 µL of AuroraA-TPX2 KD GST; GST
T2 sequence (O14965 133-383 limits assumed): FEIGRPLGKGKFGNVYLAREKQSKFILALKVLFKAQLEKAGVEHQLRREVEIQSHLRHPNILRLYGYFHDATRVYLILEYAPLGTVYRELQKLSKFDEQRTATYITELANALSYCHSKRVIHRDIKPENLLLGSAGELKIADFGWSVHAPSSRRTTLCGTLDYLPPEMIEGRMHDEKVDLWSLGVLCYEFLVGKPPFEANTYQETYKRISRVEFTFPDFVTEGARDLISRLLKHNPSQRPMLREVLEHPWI
T2 sequence (Q9ULW0 1-43 partner limits assumed): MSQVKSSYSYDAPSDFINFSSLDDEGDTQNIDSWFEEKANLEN
Summary of the method: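 Aurora-A/TPX2 phosphorylates biotinylated PLK peptide (about 1 µM) with ATP for about 120 min in 60 mM HEPES pH 7.5, 10 mM MgCl2, 2 mM DTT. EDTA quench, overnight equilibration with Eu-anti-phosphoPLK antibody and SA-APC; HTRF read at 615/655 nm after 320 nm excitation.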

[2] = given as numbers, unit inferred

T1 sequence (Q96GD4 whole entry): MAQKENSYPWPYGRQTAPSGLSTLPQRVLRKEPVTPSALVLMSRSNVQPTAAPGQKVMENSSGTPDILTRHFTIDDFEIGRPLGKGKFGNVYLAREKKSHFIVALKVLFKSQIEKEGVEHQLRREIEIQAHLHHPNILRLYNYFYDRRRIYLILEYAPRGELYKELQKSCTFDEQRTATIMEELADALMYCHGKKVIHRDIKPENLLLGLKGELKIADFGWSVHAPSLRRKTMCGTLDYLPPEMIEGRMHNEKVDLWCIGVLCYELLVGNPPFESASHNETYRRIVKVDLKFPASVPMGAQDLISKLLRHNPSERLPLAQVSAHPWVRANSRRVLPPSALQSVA

Row | IC50 (AuroraB; given as class symbols) | IC50 (AuroraA-TPX2; given as class symbols) | Compound | further results
1 | – | – | Nc1nccc(-c2cccnc2Oc2ccc(Nc3nnc(-c4ccsc4)c4ccccc34)cc2)n1 [Example 90, N-(4-((3-(2-amino-4-pyrimidinyl)-2-pyridinyl)oxy)phenyl)-4-(3-thienyl)-1-phthalazinamine] | EC50 ([1]; Homo sapiens, HeLa, 1 h): < 1 µM
2 | – | – | CNc1nccc(-c2cccnc2Oc2ccc(Nc3nnc(-c4ccsc4)c4ccccc34)cn2)n1 [Example 92, N-(6-((3-(2-(methylamino)-4-pyrimidinyl)-2-pyridinyl)oxy)-3-pyridinyl)-4-(3-thienyl)-1-phthalazinamine] | EC50 ([1]; Homo sapiens, HeLa, 1 h): < 1 µM
3 | – | – | CNc1nccc(-c2cccnc2Oc2ccc(Nc3nnc(-c4ccccc4)c4c3CCCC4)cn2)n1 [Example 105, N-(6-((3-(2-(methylamino)-4-pyrimidinyl)-2-pyridinyl)oxy)-3-pyridinyl)-4-phenyl-5,6,7,8-tetrahydro-1-phthalazinamine] | EC50 ([1]; Homo sapiens, HeLa, 1 h): < 1 µM
4 | – | – | CNc1nccc(-c2cccnc2Oc2ccc(Nc3nnc(-c4ccccc4)c4c3C3CCC4CC3)cc2)n1 [Example 107, N-(4-((3-(2-(methylamino)-4-pyrimidinyl)-2-pyridinyl)oxy)phenyl)-6-phenyl-4,5-diazatricyclo [6.2.2.0-2,7-]dodeca-2,4,6-trien-3-amine] | EC50 [1]: < 1 µM
5 | – | – | CNc1nccc(-c2cccnc2Oc2ccc(Nc3nnc(-c4ccccc4)c4c3CCC4)cn2)n1 [Example 108, N-(6-((3-(2-(methylamino)-4-pyrimidinyl)-2-pyridinyl)oxy)-3-pyridinyl)-4-phenyl-6,7-dihydro-5H-cyclopenta[d]pyridazin-1-amine] | EC50 ([1]; Homo sapiens, HeLa, 1 h): < 1 µM
6 | – | – | Cc1cc(-c2ccccc2)nnc1Nc1ccc(Oc2ncccc2-c2ccnc(N)n2)cc1 [Example 119, N-(4-((3-(2-amino-4-pyrimidinyl)-2-pyridinyl)oxy)phenyl)-4-methyl-6-phenyl-3-pyridazinamine] | EC50 ([1]; Homo sapiens, HeLa, 1 h): < 1 µM
7 | ≤ 0.1 µM | ≤ 0.1 µM | COc1cccc(-c2nnc(Nc3ccc(Oc4ncccc4-c4ccnc(NCCCN5CCN(C)CC5)n4)cc3)c3ccccc23)n1 [compound 410, 4-(6-(methyloxy)-2-pyridinyl)-N-(4-((3-(2-((3-(4-methyl-1-piperazinyl)propyl)amino)-4-pyrimidinyl)-2-pyridinyl)oxy)phenyl)-1-phthalazinamine] | –
8 | ≤ 0.1 µM | ≤ 0.1 µM | C[C@H]1CN(CCCNc2nccc(-c3cccnc3Oc3ccc(Nc4nnc(-c5ccccc5)c5ccccc45)cc3)n2)CCN1 [compound 411, N-(4-((3-(2-((3-((3S)-3-methyl-1-piperazinyl)propyl)amino)-4-pyrimidinyl)-2-pyridinyl)oxy)phenyl)-4-phenyl-1-phthalazinamine] | –
9 | ≤ 0.1 µM | 0.1 to 0.5 µM | Cc1ccnc(-c2nnc(Nc3ccc(Oc4ncccc4-c4ccnc(NCCCN5CCOCC5)n4)cc3)c3ccccc23)c1 [compound 412, 4-(4-methyl-2-pyridinyl)-N-(4-((3-(2-((3-(4-morpholinyl)propyl)amino)-4-pyrimidinyl)-2-pyridinyl)oxy)phenyl)-1-phthalazinamine] | –
10 | ≤ 0.1 µM | ≤ 0.1 µM | CCc1cc(-c2ccccc2)nnc1Nc1ccc(Oc2ncccc2-c2ccnc(NCCCN3CCN(C)CC3)n2)nc1 [compound 449, 4-ethyl-N-(6-((3-(2-((3-(4-methyl-1-piperazinyl)propyl)amino)-4-pyrimidinyl)-2-pyridinyl)oxy)-3-pyridinyl)-6-phenyl-3-pyridazinamine] | –
11 | ≤ 0.1 µM | 0.5 to 2.5 µM | CCc1cc(-c2ccccc2)nnc1Nc1ccc(Oc2ncccc2-c2ccnc(NCCCN3CCCCC3)n2)nc1 [compound 450, 4-ethyl-6-phenyl-N-(6-((3-(2-((3-(1-piperidinyl)propyl)amino)-4-pyrimidinyl)-2-pyridinyl)oxy)-3-pyridinyl)-3-pyridazinamine] | –
12 | ≤ 0.1 µM | 0.1 to 0.5 µM | CCc1cc(-c2ccccc2)nnc1Nc1ccc(Oc2ncccc2-c2ccnc(NCCCN3CCNCC3)n2)nc1 [compound 451, 4-ethyl-6-phenyl-N-(6-((3-(2-((3-(1-piperazinyl)propyl)amino)-4-pyrimidinyl)-2-pyridinyl)oxy)-3-pyridinyl)-3-pyridazinamine] | –
13 | ≤ 0.1 µM | ≤ 0.1 µM | FC1CCCN(CCCNc2nccc(-c3cccnc3Oc3ccc(Nc4nnc(-c5ccccc5)c5ccccc45)cc3)n2)C1 (stereo not shown) [compound 452, N-(4-((3-(2-((3-(3-fluoro-1-ptperidinyl)propyl)amino)-4-pyrimidinyl)-2-pyridinyl)oxy)phenyl)-4-phenyl-1-phthalazinamine] | –
14 | ≤ 0.1 µM | ≤ 0.1 µM | FC1(F)CCCN(CCCNc2nccc(-c3cccnc3Oc3ccc(Nc4nnc(-c5ccccc5)c5ccccc45)cc3)n2)C1 [compound 453, N-(4-((3-(2-((3-(3,3-difluoro-1-piperidinyl)propyl)amino)-4-pyrimidinyl)-2-pyridinyl)oxy)phenyl)-4-phenyl-1-phthalazinamine] | –
15 | ≤ 0.1 µM | ≤ 0.1 µM | COc1cccc(-c2nnc(Nc3ccc(Oc4ncccc4-c4ccnc(NCCCN5CCCCC5)n4)cc3)c3ccccc23)n1 [compound 454, 4-(6-(methyloxy)-2-pyridinyl)-N-(4-((3-(2-((3-(1-piperidinyl)propyl)amino)-4-pyrimidinyl)-2-pyridinyl)oxy)phenyl)-1-phthalazinamine] | –
16 | ≤ 0.1 µM | ≤ 0.1 µM | COc1cccc(-c2nnc(Nc3ccc(Oc4ncccc4-c4ccnc(NCCCN5CCCC5)n4)cc3)c3ccccc23)n1 [compound 455, 4-(6-(methyloxy)-2-pyridinyl)-N-(4-((3-(2-((3-(1-pyrrolidinyl)propyl)amino)-4-pyrimidinyl)-2-pyridinyl)oxy)phenyl)-1-phthalazinamine] | –
17 | ≤ 0.1 µM | ≤ 0.1 µM | CCc1cc(-c2ccccc2)nnc1Nc1ccc(Oc2ncccc2-c2ccnc(NCCCN3CCN(C)CC3)n2)cc1 [compound 456, 4-ethyl-N-(4-((3-(2-((3-(4-methyl-1-piperazinyl)propyl)amino)-4-pyrimidinyl)-2-pyridinyl)oxy)phenyl)-6-phenyl-3-pyridazinamine] | –
18 | ≤ 0.1 µM | ≤ 0.1 µM | CCc1cc(-c2ccccc2)nnc1Nc1ccc(Oc2ncccc2-c2ccnc(NCCCN3CCNCC3)n2)cc1 [compound 457, 4-ethyl-6-phenyl-N-(4-((3-(2-((3-(1-piperazinyl)propyl)amino)-4-pyrimidinyl)-2-pyridinyl)oxy)phenyl)-3-pyridazinamine] | –
19 | ≤ 0.1 µM | ≤ 0.1 µM | CCc1cc(-c2ccccc2)nnc1Nc1ccc(Oc2ncccc2-c2ccnc(NCCCN3CCCCC3)n2)cc1 [compound 458, 4-ethyl-6-phenyl-N-(4-((3-(2-((3-(1-piperidinyl)propyl)amino)-4-pyrimidinyl)-2-pyridinyl)oxy)phenyl)-3-pyridazinamine] | –
20 | ≤ 0.1 µM | 0.1 to 0.5 µM | CCc1cc(-c2ccccc2)nnc1Nc1ccc(Oc2ncccc2-c2ccnc(NCCCN3CCCC3)n2)cc1 [compound 459, 4-ethyl-6-phenyl-N-(4-((3-(2-((3-(1-pyrrolidinyl)propyl)amino)-4-pyrimidinyl)-2-pyridinyl)oxy)phenyl)-3-pyridazinamine] | –
21 | ≤ 0.1 µM | ≤ 0.1 µM | COc1cccc(-c2nnc(Nc3ccc(Oc4ncccc4-c4ccnc(NCCCN5CCNCC5)n4)cc3)c3ccccc23)n1 [compound 460, 4-(6-(methyloxy)-2-pyridinyl)-N-(4-((3-(2-((3-(1-piperazinyl)propyl)amino)-4-pyrimidinyl)-2-pyridinyl)oxy)phenyl)-1-phthalazinamine] | –
22 | – | – | N-(4-((3-(2-amino-4-pyrimidinyl)-2-pyridinyl)oxy)phenyl)-4-(6-methyl-2-pyridinyl)-1-phthalazinamine [compound 271] | IC50 (AuroraB; [2]): 0.001 µM; IC50 (AuroraA-TPX2; [2]): 0.0243 µM
23 | ≤ 0.1 µM | ≤ 0.1 µM | N-(4-((3-(2-amino-4-pyrimidinyl)-2-pyridinyl)oxy)phenyl)-4-ethyl-6-phenyl-3-pyridazinamine [compound 435] | –
